Source: ChEMBL document CHEMBL4619762, “Exploring the Sequence Diversity of Cyclotides from Vietnamese Viola Species” (J Nat Prod, 2020)
pIC50: −log10 of the molar value. Bridge positions count the residues as written; N and C are the ends. Peptide text beside a SMILES is read from it.

Tests used:
Erythrocyte = test: Hemolytic activity in human red blood cells after 1 hr; assay type: ADME, cell-based
PC-3 = test: Cytotoxicty against human PC3 cells after 24 hrs by MTT assay; assay type: functional, cell-based; conditions: PC-3, 24 h
HeLa = test: Cytotoxicty against human HeLa cells after 24 hrs by MTT assay; assay type: functional, cell-based
HUVEC = test: Cytotoxicty against HUVEC after 24 hrs by MTT assay; assay type: cell-based; conditions: Homo sapiens

Compound | pIC50 (Erythrocyte) | pIC50 (PC-3) | pIC50 (HeLa) | pIC50 (HUVEC)
CC(C)C[C@@H]1NC(=O)CNC(=O)[C@H](CC(N)=O)NC(=O)[C@H](CCCNC(=N)N)NC(=O)[C@H]([C@@H](C)O)NC(=O)[C@@H]2CSSC[C@@H]3NC(=O)[C@H]([C@@H](C)O)NC(=O)CNC(=O)CNC(=O)[C@H](C(C)C)NC(=O)[C@@H]4CSSC[C@H](NC(=O)[C@H](CO)NC(=O)[C@H](CSSC[C@H](NC(=O)[C@H](C(C)C)NC(=O)[C@@H]5CCCN5C1=O)C(=O)NCC(=O)N[C@@H](CCC(=O)O)C(=O)N[C@@H]([C@@H](C)O)C(=O)N4)NC(=O)CNC(=O)[C@@H]1CCCN1C(=O)[C@H]([C@@H](C)O)NC(=O)[C@H](CC(N)=O)NC3=O)C(=O)N[C@@H](CO)C(=O)N[C@@H](Cc1c[nH]c3ccccc13)C(=O)N1CCC[C@H]1C(=O)N[C@@H](C(C)C)C(=O)N2 | ≤ 4.30 | 5.44 | 5.28 | 5.40
CC[C@H](C)[C@@H]1NC(=O)[C@@H]2CSSC[C@@H]3NC(=O)[C@H](C(C)C)NC(=O)[C@H](CCCCN)NC(=O)[C@H](CO)NC(=O)[C@H](CCCCN)NC(=O)[C@@H]4CSSC[C@H](NC(=O)[C@H](CO)NC(=O)[C@H](CCC(=O)O)NC(=O)CNC(=O)[C@H](CSSC[C@H](NC(=O)CNC(=O)[C@H](CC(C)C)NC(=O)[C@H](C)NC(=O)[C@H](C)NC(=O)[C@H]([C@@H](C)O)NC1=O)C(=O)N[C@H](CO)C(=O)N4)NC(=O)[C@@H]1CCCN1C(=O)[C@H]([C@@H](C)CC)NC(=O)CNC(=O)[C@H](CC(N)=O)NC(=O)[C@H](CCCNC(=N)N)NC(=O)[C@H](Cc1ccc(O)cc1)NC3=O)C(=O)N[C@@H](C(C)C)C(=O)N[C@@H](Cc1ccc(O)cc1)C(=O)N[C@@H]([C@@H](C)CC)C(=O)N1CCC[C@H]1C(=O)N2 | 4.95 | 6.30 | 6.30 | 6.40
CC[C@H](C)[C@@H]1NC(=O)[C@@H]2CSSC[C@@H]3NC(=O)[C@H](C(C)C)NC(=O)[C@H](CCCCN)NC(=O)[C@H](CO)NC(=O)[C@H](CCCCN)NC(=O)[C@@H]4CSSC[C@H](NC(=O)[C@H](CO)NC(=O)[C@H](CCC(=O)O)NC(=O)CNC(=O)[C@H](CSSC[C@H](NC(=O)CNC(=O)[C@@H](CC(C)C)NC(=O)[C@H](CC(C)C)NC(=O)[C@H]([C@@H](C)O)NC(=O)[C@H](CO)NC1=O)C(=O)N[C@@H](CO)C(=O)N4)NC(=O)[C@@H]1CCCN1C(=O)[C@H]([C@@H](C)CC)NC(=O)[C@H](C(C)C)NC(=O)CNC(=O)[C@H](CC(N)=O)NC(=O)[C@H](CCCNC(=N)N)NC(=O)[C@H](Cc1ccc(O)cc1)NC3=O)C(=O)N[C@@H](C(C)C)C(=O)N[C@@H](Cc1ccccc1)C(=O)N[C@@H]([C@@H](C)CC)C(=O)N1CCC[C@H]1C(=O)N2 |  | 5.96 | 5.74 | 5.92
CC[C@H](C)[C@@H]1NC(=O)[C@H](C)NC(=O)[C@H](CO)NC(=O)[C@H](CO)NC(=O)[C@H]([C@@H](C)CC)NC(=O)[C@@H]2CSSC[C@@H]3NC(=O)[C@H](C(C)C)NC(=O)[C@H](CCCCN)NC(=O)[C@H](CO)NC(=O)[C@H](CCCCN)NC(=O)[C@@H]4CSSC[C@H](NC(=O)[C@H](CO)NC(=O)[C@H](CCC(=O)O)NC(=O)CNC(=O)[C@H](CSSC[C@H](NC(=O)CNC1=O)C(=O)N[C@@H](CO)C(=O)N4)NC(=O)[C@@H]1CCCN1C(=O)[C@H]([C@@H](C)CC)NC(=O)CNC(=O)[C@H](CC(N)=O)NC(=O)[C@H](CCCNC(=N)N)NC(=O)[C@H](Cc1ccc(O)cc1)NC3=O)C(=O)N[C@@H](C(C)C)C(=O)N[C@@H](Cc1c[nH]c3ccccc13)C(=O)N[C@@H]([C@@H](C)CC)C(=O)N1CCC[C@H]1C(=O)N2 (cyclo(AIGCSCKSKVCYRNGIPCGESCVWIPCISS); disulfide 4-18, 6-22, 11-27) |  | 6.10 | 6.15 | 6.22
CC[C@H](C)[C@@H]1NC(=O)[C@H](C)NC(=O)[C@H](C)NC(=O)[C@H](CO)NC(=O)[C@H]([C@@H](C)CC)NC(=O)[C@@H]2CSSC[C@@H]3NC(=O)[C@H](C(C)C)NC(=O)[C@H](CCCCN)NC(=O)[C@H](CO)NC(=O)[C@H](CCCCN)NC(=O)[C@@H]4CSSC[C@H](NC(=O)[C@H](CO)NC(=O)[C@H](CCC(=O)O)NC(=O)CNC(=O)[C@H](CSSC[C@H](NC(=O)CNC1=O)C(=O)N[C@@H](CO)C(=O)N4)NC(=O)[C@@H]1CCCN1C(=O)[C@H]([C@@H](C)CC)NC(=O)CNC(=O)[C@H](CC(N)=O)NC(=O)[C@H](CCCNC(=N)N)NC(=O)[C@H](Cc1ccc(O)cc1)NC3=O)C(=O)N[C@@H](C(C)C)C(=O)N[C@@H](Cc1c[nH]c3ccccc13)C(=O)N[C@@H]([C@@H](C)CC)C(=O)N1CCC[C@H]1C(=O)N2 [CYCLOVIOLACIN O13] (cyclo(AAIGCSCKSKVCYRNGIPCGESCVWIPCIS); disulfide 5-19, 7-23, 12-28) | 4.83 | 6.22 | 6.15 | 6.30
